Results: US20200069686A1, “N-SUBSTITUTED INDOLE DERIVATIVES” (Idorsia Pharmaceuticals Ltd, priority 2017, published 2020)

How the values were obtained:
Format in all cases: cell-based
[1] = molecular target: T1, PTGER2 (EP2) (Homo sapiens, UniProt P43116); assay: hEP2 b-arrestin assay (PathHunter HEK 293 PTGER2 b-arrestin cells); settings: PGE2 5 μM (EC80) as agonist, antagonistic activity, read-out: hEP2 beta-arrestin IC50
T1 construct: host or cells: HEK 293 (PathHunter PTGER2 b-arrestin cell line)
Procedure: (§1) The antagonistic activities of the compounds of formula (I) on the EP2 and EP4 receptors are determined in accordance with the following experimental methods.
(§2) The assay is using the PathHunter™ HEK 293 PTGER2 and PTGER4 b-arrestin cell lines from DiscoverX. The system is based on the Enzyme Fragment Complementation Technology. Two complementing fragments of the b-galactosidase enzyme are expressed within stably transfected cells. The larger portion of b-gal, termed EA for Enzyme Acceptor, is fused to the C-terminus of b-arrestin 2. The smaller fragment, termed ProLink™ tag, is fused to PTGER2 (EP2) or PTRGER4 (EP4) at the C-terminus. Upon activation, b-arrestin is recruited which forces the interaction of ProLink and EA, allowing complementation of the two fragments of b-gal and the formation of a functional enzyme which is capable of hydrolysing the substrate and generating a chemiluminescent signal.
(§3) The HEK 293 PTGER2 b-arrestin cells (DiscoverX 93-021-4C1) are detached from culture dishes with a cell dissociation buffer (Invitrogen, 13151-014), and collected in growing medium (GM: DMEM+Glutamax-I (Invitrogen 32430)/10% FCS, 1% Penicilin/streptomycin). 5000 cells per well of a 384 well plate (white with white bottom Greiner 781080) are seeded in 20 ul per well of GM. Plate is incubated at 37° C., 5% CO2 for 24 hours.
(§4) Stock solutions of test compounds are made at a concentration of 10 mM in DMSO, and serially diluted in DMSO to concentrations required for inhibition dose response curves (tested concentration range 10 μM-2 nM or 1 μM-0.2 nM).
PGE2 (Cayman 14010, stock solution: 10 mM in DMSO) is used as agonist at 5 μM final concentration, corresponding to EC80.
Five microliters of diluted compounds are transferred into the assay plate. Plate is pre-incubated 15 minutes at 37° C. Then five microliters of PGE2 (final conc. 5 μM) are transferred into the assay plate. Plate is incubated 120 minutes at 37° C.
(§5) PathHunter Glo Detection Kit components are thawed and mix according to manufacturers instructions: 1 part Galacton Star Substrate with 5 parts Emerald II™ Solution, and 19 parts of PathHunter Cell Assay Buffer, respectively. Twelve μL of reagent are transferred to the assay plate and incubate for 1 hour at room temperature in the dark. Luminescence counts are read on a BMG Fluostar Optima reader according to manufacturers instructions.
(§6) For each compound concentration calculate of the percentage of activity compared to DMSO control value as average ±STDEV. (each concentration is measured in duplicate)
(§7) IC50 values and curves are generated with XLfit software (IDBS) using Dose-Response One Site model 203. When compounds were measured multiple times, mean values are given.

[2] = molecular target: T2, EP2 (Homo sapiens, UniProt P43116); assay: hEP2 cAMP assay (SF295 glioblastoma cells, HTRF cAMP); settings: PGE2 75 nM (EC80) as agonist, antagonistic activity
T2 construct: SF295 glioblastoma cells express high endogenous EP2 and no EP4; endogenous in cells; host or cells: SF295 glioblastoma cells (NCI No. 0503170)
Procedure: (§8) The antagonistic activities of the compounds of formula (I) on the EP2 and EP4 receptors are also determined in accordance with the following experimental method.
(§9) Human tumor cell lines expressing endogenously either EP4 or EP2 are used and cAMP accumulation in cells upon PGE2 stimulation is monitored. SF295 glioblastoma cells express high endogenous EP2 and no EP4,whereas BT549 breast cancer cells, express high endogenous EP4 levels and very low EP2 levels.
(§10) As a detection method for cAMP the HTRF (homogeneous time resolved fluorescence) Cisbio kit (HTRF cAMP dynamic 2 kit 20′000 tests Cisbio Cat. #62AM4PEC) was used, which is based on a competitive immunoassay using a Cryptate-labeled anti-cAMP antibody and d2-labeled cAMP. Native cAMP produced by cells or unlabeled cAMP (for the standard curve) compete with exogenously added d2-labeled cAMP (acceptor) for binding to monoclonal anti-cAMP-Eu3+ Cryptate (donor). A FRET signal (Fluorescence Resonance Energy Transfer) is obtained only if the labeled anti-cAMP antibody binds the d2 labelled cAMP, thus the specific signal (i.e. energy transfer) is inversely proportional to the concentration of cAMP in the standard or sample.
(§11) The SF295 cells (NCl/No. 0503170) are detached from culture dishes with a cell dissociation buffer (Invitrogen, 13151-014), and collected in growing medium (GM: RPM11640 (Invitrogen 21875)/10% FCS, 1% Penicilin/streptomycin). Cells are counted washed and resuspended in assay buffer (AB; HBSS, 20 mM HEPES, 0.2% BSA; 2 mM IBMX). 4′000 cells in 5 μL of AB are seeded per well of a small volume 384 well plate (black with flat bottom, Greiner 784076).
Stock solutions of test compounds are made at a concentration of 10 mM in DMSO, and serially diluted in DMSO to concentrations required for inhibition dose response curves (tested concentration range 30 μM-0.4 nM; […] or 1 μM-0.01 nM).
PGE2 (Cayman 14010, stock solution: […] in DMSO) is used as agonist at 75 nM final concentration, corresponding to EC80.
(§12) 2.5 μL of diluted compounds are transferred into the assay plate. […] Five I of each donor (anti-cAMP cryptate) and acceptor (cAMP-d2) are added and the plate is incubated another hour at room temperature in the dark and then read using a BMG LABTECH PHERAstar reader (Excitation: 337 nm, Emission: 620 and 665 nm).
(§13) The obtained Delta F (fluorescence) values (665 nm/620 nM) are converted into % cAMP values using the measurements of the cAMP calibrator provided in the kit. For each compound concentration the percentage of cAMP compared to DMSO control value as average ±STDEV (each concentration is measured in duplicate) is calculated.
as §7

[3] = molecular target: T3, PTRGER4 (EP4) (Homo sapiens, UniProt P35408); assay: hEP4 b-arrestin assay (PathHunter HEK 293 PTGER4 b-arrestin cells); settings: PGE2 20 nM (EC80) as agonist, antagonistic activity, read-out: hEP4 beta-arrestin IC50
T3 construct: host or cells: HEK 293 (PathHunter PTGER4 b-arrestin cell line)
Procedure: as §1, §2
as §3, with “293 PTGER4” for “293 PTGER2”, “(DiscoverX 93-030-4C1)” for “(DiscoverX 93-021-4C1)”, “20 μl” for “20 ul”
as §4
PGE2 (Cayman 14010, stock solution: 100 uM in DMSO) is used as agonist at 20 nM final concentration, corresponding to EC80.
Five microliters of diluted compounds are transferred into the assay plate. Plate is pre-incubated 15 minutes at 37° C. Then five microliters of PGE2 (final conc. 20 nM) are transferred into the assay plate. Plate is incubated 120 minutes at 37° C.
as §5, with “I” for “μL”
as §6, §7

[4] = molecular target: T4, EP4 (Homo sapiens, UniProt P35408); assay: hEP4 cAMP assay (BT549 breast cancer cells, HTRF cAMP); settings: PGE2 6 nM (EC80) as agonist, antagonistic activity
T4 construct: BT549 breast cancer cells, express high endogenous EP4 levels and very low EP2 levels; endogenous in cells; host or cells: BT549 breast cancer cells (NCI No. 0507282)
Procedure: as §8, §9, §10
as §11, with “BT549” for “SF295”, “0507282)” for “0503170)”
Stock solutions of test compounds are made at a concentration of 10 mM in DMSO, and serially diluted in DMSO to concentrations required for inhibition dose response curves (tested concentration range 30 μM-0.4 nM; 30 μM-0.015 nM or 1 μM-0.01 nM).
PGE2 (Cayman 14010, stock solution: 6 μM in DMSO) is used as agonist at 6 nM final concentration, corresponding to EC80.
as §12, with “μL” for “I”
as §13, §7

T4 sequence (P35408 whole entry): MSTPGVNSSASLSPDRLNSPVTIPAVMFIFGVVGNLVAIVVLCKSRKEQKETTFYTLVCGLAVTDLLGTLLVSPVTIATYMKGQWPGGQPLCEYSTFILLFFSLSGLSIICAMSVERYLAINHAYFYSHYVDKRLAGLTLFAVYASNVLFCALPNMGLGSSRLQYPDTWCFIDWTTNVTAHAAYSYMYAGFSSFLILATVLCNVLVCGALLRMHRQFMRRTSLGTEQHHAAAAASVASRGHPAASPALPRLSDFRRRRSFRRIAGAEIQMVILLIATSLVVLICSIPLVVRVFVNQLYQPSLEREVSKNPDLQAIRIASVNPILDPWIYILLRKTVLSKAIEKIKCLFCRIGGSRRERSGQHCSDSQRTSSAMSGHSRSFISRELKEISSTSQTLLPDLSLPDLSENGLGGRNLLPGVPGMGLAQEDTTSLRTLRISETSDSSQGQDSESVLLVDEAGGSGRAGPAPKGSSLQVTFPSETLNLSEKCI
T3 sequence (P35408 whole entry): as above
T1 sequence (P43116 whole entry): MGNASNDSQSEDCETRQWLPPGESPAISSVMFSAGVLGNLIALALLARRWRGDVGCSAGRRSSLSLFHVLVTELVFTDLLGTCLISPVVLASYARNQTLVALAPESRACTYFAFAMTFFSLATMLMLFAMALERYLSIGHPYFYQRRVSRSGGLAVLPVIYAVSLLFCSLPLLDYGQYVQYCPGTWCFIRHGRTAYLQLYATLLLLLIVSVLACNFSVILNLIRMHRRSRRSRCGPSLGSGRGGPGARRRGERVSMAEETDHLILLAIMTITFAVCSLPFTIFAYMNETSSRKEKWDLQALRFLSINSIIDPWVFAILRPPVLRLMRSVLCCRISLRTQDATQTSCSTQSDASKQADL
T2 sequence (P43116 whole entry): as above

IC50 [1] [nM]	IC50 [2] [nM]	IC50 [3] [nM]	IC50 [4] [nM]	SMILES
3	2	2960	2610	O=C(O)c1ccc(-c2cc(NCCn3c(Cl)cc4ccccc43)ncn2)cc1 [Example 4, 4-{6-[2-(2-Chloro-indol-1-yl)-ethylamino]-pyrimidin-4-yl}-benzoic acid]
8	5	11000	5660	Cc1cccc2cc(C)n(CCNc3cc(-c4ccc(C(=O)O)cc4)ncn3)c12 [Example 3, 4-{6-[2-(2,7-Dimethyl-indol-1-yl)-ethylamino]-pyrimidin-4-yl}-benzoic acid]
13	15	5970	5720	Cc1cc2ccccc2n1CCNc1cc(-c2ccc(C(=O)O)cc2)ncn1 [Example 1, 4-{6-[2-(2-Methyl-indol-1-yl)-ethylamino]-pyrimidin-4-yl}-benzoic acid]
17	–	4970	–	O=C(O)c1ccc(-c2cc(NCCn3c(Br)cc4ccccc43)ncn2)cc1 [Example 5, 4-{6-[2-(2-Bromo-indol-1-yl)-ethylamino]-pyrimidin-4-yl}-benzoic acid]
11	10	2060	1350	N#Cc1cc2ccccc2n1CCNc1cc(-c2ccc(C(=O)O)cc2)ncn1 [Example 2, 4-{6-[2-(2-Cyano-indol-1-yl)-ethylamino]-pyrimidin-4-yl}-benzoic acid]
